Drawing on patent publication US20110105457A1, “HETEROCYCLIC COMPOUND HAVING INHIBITORY ACTIVITY ON PI3K” (SHIONOGI & CO., LTD., priority 2008, published 2011), this text covers inhibition for 71 compounds.

SMILES strings stand for the structures.

For this assay, the target named is PI-3 kinase γ (Homo sapiens, UniProt P48736). The assay is described as follows: PI3Kγ inhibitory activity, PI3-kinase HTRF assay (Millipore). The settings on record: 0.5 h; compound 50 μM; read-out: Inhibition ratio % (50 μM). The class given is biochemical. On the procedure: (Method) The PI3Kγ inhibitory activity of a compound was evaluated using PI3-kinase HTRF™ assay (Millipore) according to the following procedure.
PI-3 kinase γ, sequence (P48736 whole entry): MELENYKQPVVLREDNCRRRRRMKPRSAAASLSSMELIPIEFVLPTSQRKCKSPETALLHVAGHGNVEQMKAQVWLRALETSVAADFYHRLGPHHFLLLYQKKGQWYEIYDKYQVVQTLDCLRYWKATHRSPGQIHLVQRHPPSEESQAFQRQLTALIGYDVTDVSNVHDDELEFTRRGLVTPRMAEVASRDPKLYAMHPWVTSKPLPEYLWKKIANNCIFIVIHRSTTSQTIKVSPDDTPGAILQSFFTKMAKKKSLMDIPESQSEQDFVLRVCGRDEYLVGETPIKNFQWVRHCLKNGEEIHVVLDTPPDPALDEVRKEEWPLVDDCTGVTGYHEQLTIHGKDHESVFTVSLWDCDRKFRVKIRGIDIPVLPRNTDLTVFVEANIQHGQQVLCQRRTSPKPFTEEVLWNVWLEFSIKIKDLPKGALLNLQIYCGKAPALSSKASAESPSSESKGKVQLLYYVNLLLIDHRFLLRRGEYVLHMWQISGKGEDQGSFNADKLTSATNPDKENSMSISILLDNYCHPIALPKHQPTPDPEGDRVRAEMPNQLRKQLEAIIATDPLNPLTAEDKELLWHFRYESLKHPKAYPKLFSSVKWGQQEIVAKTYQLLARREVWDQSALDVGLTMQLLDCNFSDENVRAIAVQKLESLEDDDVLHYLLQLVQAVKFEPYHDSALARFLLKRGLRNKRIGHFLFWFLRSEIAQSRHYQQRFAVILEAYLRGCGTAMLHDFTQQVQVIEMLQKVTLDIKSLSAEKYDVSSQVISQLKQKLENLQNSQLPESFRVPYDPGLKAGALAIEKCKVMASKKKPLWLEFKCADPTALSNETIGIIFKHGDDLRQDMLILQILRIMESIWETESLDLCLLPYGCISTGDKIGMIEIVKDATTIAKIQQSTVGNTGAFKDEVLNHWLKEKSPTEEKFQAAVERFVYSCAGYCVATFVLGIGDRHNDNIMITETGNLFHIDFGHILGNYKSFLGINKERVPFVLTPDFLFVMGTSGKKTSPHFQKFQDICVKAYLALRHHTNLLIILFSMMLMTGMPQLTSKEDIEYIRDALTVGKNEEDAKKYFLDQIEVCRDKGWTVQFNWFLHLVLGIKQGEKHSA
To each well of a testing plate was added 5 μL of a compound solution comprising 10% DMSO (200 μM as the concentration of the compound), 5 μL of 40 μM phosphatidylinositol (4,5)-bisphosphate/20 mM MgCl2/10 mM DTT, and 5 μL of 80 μg/mL PI-3 kinase γ/10 mM MgCl2/5 mM DTT, and then stood for 10 minutes.
Then, 5 μL of 40 μM ATP/10 mM MgCl2/5 mM DTT was added thereto. After reacting for 30 minutes at room temperature, 5 μL of a solution comprising EDTA and biotinylated phosphatidylinositol (3,4,5)-triphosphate was added to quench the reaction.
5 μL of a detection reagent comprising a europium-labeled anti-GST antibody, the GST-tagged PH domain, and allophycocyanin-labeled streptavidin was added thereto. After 18 hours, HTRF (excitation wavelength: 330 nm, measuring wavelengths: 620 nm and 665 nm) was measured.
A value of dividing an amount of fluorescence obtained at the measuring wavelength 665 nm by an amount of fluorescence obtained at 620 nm was defined as an HTRF ratio. The HTRF ratio in the absence of a compound was defined as 100% activity, and the HTRF ratio in the absence of PI-3 kinase γ was defined as 0% activity to calculate an inhibition ratio.
In general terms: In TR-FRET formats the signal depends on donor and acceptor labels being close together.
As for `COc1cccc(-c2ccc3nc(NC(C)=O)cn3n2)c1` [Compound I-291], the inhibition at 50 µM came to 74%.
In the case of `CCOC(=O)CNC(=O)Nc1cn2nc(-c3cncc(OC)c3)ccc2n1` [Compound I-223] it was 86%.
On to `CNC(=O)Nc1cn2nc(Nc3cccc(CO)c3)ccc2n1` [Compound I-222], for which the inhibition at 50 µM came to 87%.
Consider `CNC(=O)Nc1cn2nc(C(=O)Nc3cccc(C(=O)O)c3)ccc2n1` [Compound I-33], for which the inhibition at 50 µM came to 57%.
The figure for `CNC(=O)Nc1cn2nc(-c3cccc(C#N)c3)ccc2n1` [Compound I-134] is 59%; for `CNC(=O)Nc1cn2nc(Nc3cccc(OCc4ccccc4)c3)ccc2n1` [Compound I-53] it is 74%.
The figure for `CNC(=O)Nc1cn2nc(-c3cccc([N+](=O)[O-])c3)ccc2n1` [Compound I-128] is 50%; for `CNC(=O)Nc1cn2nc(-c3ccoc3)ccc2n1` [Compound I-76] it is 72%; for `COc1cccc(-c2ccc3nc(NC(=O)NCCN)cn3n2)c1` [Compound I-264] it is 67%.
In the case of `CNC(=O)Nc1cn2nc(Cl)ccc2n1` [Compound I-1] it was 72%.
For the compound `CNC(=O)Nc1cn2nc(-c3cccc(C(=O)NC(C)C)c3)ccc2n1` [Compound I-139], the inhibition at 50 µM came out at 79%.
Regarding `COc1cccc(-c2ccc3nc(Nc4ccc(OCCO)cc4)cn3n2)c1` [Compound I-288], the inhibition at 50 µM came out at 107%.
The figure for `CNC(=O)Nc1cn2nc(C(=O)Nc3ccc(Cl)cc3)ccc2n1` [Compound I-46] is 76%.
As for `COc1cccc(-c2ccc3nc(NC(=O)Cc4ccccc4OC)cn3n2)c1` [Compound I-174], the inhibition at 50 µM worked out at 78%.
In the case of `COC(=O)[C@H]1CC[C@@H](C(=O)Nc2cn3nc(-c4cccc(OC)c4)ccc3n2)C1` [Compound I-195] it was 82%.
The figure for `COc1cccc(-c2ccc3nc(NC(=O)NCc4nccs4)cn3n2)c1` [Compound I-255] is 75%; for `CNC(=O)Nc1cn2nc(-c3cccc(N)c3)ccc2n1` [Compound I-57] it is 84%.
The figure for `CNC(=O)Nc1cn2nc(Sc3cccc(OC)c3)ccc2n1` [Compound I-281] is 78%.
For `CNC(=O)Nc1cn2nc(-c3cccc(NC(C)=O)c3)ccc2n1` [Compound I-124], the inhibition at 50 µM came out at 105%.
On to `CNC(=O)Nc1cn2nc(C(=O)Nc3ccc4[nH]ccc4c3)ccc2n1` [Compound I-45], for which the inhibition at 50 µM amounted to 74%.
In the case of `COc1cccc(-c2ccc3nc(NC(=O)CC(C)CC(C)(C)C)cn3n2)c1` (centres unmarked) [Compound I-164] it was 89%; in that of `CNC(=O)Nc1cn2nc(-c3cccc(Cl)c3)ccc2n1` [Compound I-59], 52%.
The figure for `CNC(=O)Nc1cn2nc(-c3cccc(COC)c3)ccc2n1` [Compound I-132] is 78%; for `CCOC(=O)CCCNC(=O)Nc1cn2nc(-c3cccc(OC)c3)ccc2n1` [Compound I-257] it is 83%; for `COc1cccc(-c2ccc3nc(NC(=O)Nc4ccon4)cn3n2)c1` [Compound I-243] it is 78%.
In the case of `CNC(=O)Nc1cn2nc(-c3cccc(SC)c3)ccc2n1` [Compound I-135] it was 80%; in that of `CCCCNC(=O)Nc1cn2nc(-c3cccc(OC)c3)ccc2n1` [Compound I-117], 85%.
Take `COc1cccc(-c2ccc3nc(NC(=O)NCc4cccnc4)cn3n2)c1` [Compound I-239]: the inhibition at 50 µM stood at 74%.
The figure for `CNC(=O)Nc1cn2nc(Nc3cccc(C(=O)OC)c3)ccc2n1` [Compound I-105] is 73%; for `CNC(=O)Nc1cn2nc(-c3cccc(C(=O)OC)c3)ccc2n1` [Compound I-35] it is 77%.
Take `COc1cccc(-c2ccc3nc(NC(=O)[C@H]4CCCCN4C(=O)OC(C)(C)C)cn3n2)c1` [Compound I-207]: the inhibition at 50 µM came to 64%.
The figure for `CNC(=O)Nc1cn2nc(-c3ccsc3)ccc2n1` [Compound I-38] is 91%; for `CNC(=O)Nc1cn2nc(/C=C/c3ccccc3)ccc2n1` [Compound I-70] it is 78%; for `CNC(=O)Nc1cn2nc(Oc3ccccc3)ccc2n1` [Compound I-19] it is 65%.
The figure for `CNC(=O)Nc1cn2nc(C(=O)Nc3ccc(O)cc3)ccc2n1` [Compound I-41] is 83%.
The figure for `CNC(=O)Nc1cn2nc(-c3cn[nH]c3)ccc2n1` [Compound I-141] is 87%.
In the case of `CNC(=O)Nc1cn2nc(-c3ccc(OC)nc3)ccc2n1` [Compound I-148], the inhibition at 50 µM amounted to 83%.
Consider `COc1cccc(-c2ccc3nc(NC(=O)NCCCN)cn3n2)c1` [Compound I-278], for which the inhibition at 50 µM came out at 81%.
In the case of `CNC(=O)Nc1cn2nc(Nc3cccc(O)c3)ccc2n1` [Compound I-85], the inhibition at 50 µM was 111%.
Take `CNC(=O)Nc1cn2nc(-c3ccc(NS(C)(=O)=O)cc3)ccc2n1` [Compound I-73]: the inhibition at 50 µM is 70%.
With `CNC(=O)Nc1cn2nc(NC(=O)Nc3cccc(C(=O)O)c3)ccc2n1` [Compound I-159], the inhibition at 50 µM was 86%.
The figure for `CNC(=O)Nc1cn2nc(-c3cccc(C)c3)ccc2n1` [Compound I-65] is 79%; for `CNC(=O)Nc1cn2nc(-c3cccc(OC)n3)ccc2n1` [Compound I-151] it is 63%.
The figure for `CNC(=O)Nc1cn2nc(COc3cccc(C(=O)OC)c3)ccc2n1` [Compound I-217] is 62%; for `CNC(=O)Nc1cn2nc(C(=O)NCCOC)ccc2n1` [Compound I-49] it is 64%; for `COc1cccc(-c2ccc3nc(NC(=O)Nc4nccs4)cn3n2)c1` [Compound I-232] it is 51%.
In the case of `CNC(=O)Nc1cn2nc(COc3ccccc3)ccc2n1` [Compound I-157] it was 58%; in that of `COc1cccc(-c2ccc3nc(NC(=O)NCCC(N)=O)cn3n2)c1` [Compound I-279], 83%.
On to `COc1cccc(-c2ccc3nc(Nc4cccc(C(C)=O)c4)cn3n2)c1` [Compound I-283], for which the inhibition at 50 µM worked out at 86%.
In the case of `CNC(=O)Nc1cn2nc(-c3cncnc3)ccc2n1` [Compound I-145] it was 70%; in that of `COc1cccc(-c2ccc3nc(NC(=O)CCC(=O)N(C)C)cn3n2)c1` [Compound I-172], 81%.
In the case of `COc1cccc(-c2ccc3nc(NC(=O)CC4CC4)cn3n2)c1` [Compound I-188] it was 65%; in that of `COc1cccc(-c2ccc3nc(NC(=O)c4cccc(-n5cncn5)c4)cn3n2)c1` [Compound I-204], 84%.
The figure for `CNC(=O)Nc1cn2nc(-c3cccc(C(=O)N4CCOCC4)c3)ccc2n1` [Compound I-138] is 75%; for `CCOC(=O)c1ccc2nc(NC(=O)NC)cn2n1` [Compound I-13] it is 87%; for `COc1cccc(-c2ccc3nc(NC(=O)c4cccc(N5CCN(C)CC5)c4)cn3n2)c1` [Compound I-203] it is 68%.
Consider `CNC(=O)Nc1cn2nc(COc3cccc(OC)c3)ccc2n1` [Compound I-22], for which the inhibition at 50 µM turned out to be 56%.
In the case of `COc1cccc(-c2ccc3nc(NC(=O)NCCc4ccccc4)cn3n2)c1` [Compound I-107] it was 74%; in that of `CNC(=O)Nc1cn2nc(-c3cccc(CO)c3)ccc2n1` [Compound I-69], 89%; in that of `CNC(=O)Nc1cn2nc(C(=O)c3cccc(OC)c3)ccc2n1` [Compound I-17], 76%.
Regarding `CNC(=O)Nc1cn2nc(N3CCOC3=O)ccc2n1` [Compound I-122], the inhibition at 50 µM was 61%.
The figure for `CNC(=O)Nc1cn2nc(-c3ccc(S(C)(=O)=O)cc3)ccc2n1` [Compound I-72] is 66%; for `CNC(=O)Nc1cn2nc(Cc3cccc(OC)c3)ccc2n1` [Compound I-282] it is 78%.
As for `CNC(=O)Nc1cn2nc(Nc3cccc(C(=O)NC)c3)ccc2n1` [Compound I-216], the inhibition at 50 µM was determined as 55%.
For the compound `COc1cccc(-c2ccc3nc(NC(=O)NCCC(=O)OC(C)(C)C)cn3n2)c1` [Compound I-273], the inhibition at 50 µM came to 85%.
For `COc1cccc(-c2ccc3nc(NC(=O)c4ccc5[nH]nnc5c4)cn3n2)c1` [Compound I-177], the inhibition at 50 µM was 85%.
In the case of `CNC(=O)Nc1cn2nc(Nc3cccc(C(N)=O)c3)ccc2n1` [Compound I-215], the inhibition at 50 µM turned out to be 70%.
The figure for `COc1cccc(-c2ccc3nc(NC(=O)Nc4cccs4)cn3n2)c1` [Compound I-108] is 89%; for `CNC(=O)Nc1cn2nc(NC(C)=O)ccc2n1` [Compound I-101] it is 59%.
As to `CNC(=O)Nc1cn2nc(-c3ccc(C(N)=O)cc3)ccc2n1` [Compound I-77], the inhibition at 50 µM came to 64%.
In the case of `COCCC(=O)Nc1cn2nc(-c3cccc(OC)c3)ccc2n1` [Compound I-213] it was 73%.
